The text below walks through data of US7196112B2, “Cell adhesion inhibitors” (Biogen Idec MA Inc., priority 2004, dated 2007).

Where two headings read alike, the source gives them in different places.

Assay [1] has as its target T1, α4β1 (Homo sapiens, UniProt P05556+P13612). Nature of the assay: Kinetic binding to α4β1 on Jurkat cells, competition with 35S-B as probe for free α4β1. Further details: endogenous in cells; host or cells: Jurkat human T-cell line. The settings on record: for koff: read-out: koff/10^−4; for kon: read-out: kon/10^6; for Kd: calculated from on- and off-rate constants.
Description: All cells were periodically monitored for high integrin surface expression by FACS analysis. The binding of the various inhibitors to α4β1 were assessed on Jurkat cells by competition using radioactive ^35S-B as a reporter for a 1 occupancy. Jurkat cells were pelleted by centrifugation, washed two times with TBS (50 mM Tris HCl, 150 mM NaCl, 0.1% bovine serum albumin, 2 mM glucose, 10 mM HEPES pH 7.4), suspended at approximately 2×10^6 cells/mL in TBS, and counted using a Neubauer hemocytometer. The cells were further diluted 2×10^6 cells/mL with TBS containing 1 mM CaCl2 and 1 mM MgCl2 and treated with serial dilutions of test compound for 1 hour, and then 5 nM ^35S-B, an amount sufficient to bind all unoccupied receptors, was added for 10 minutes before measuring the bound counts. The cells were then pelleted by centrifugation, resuspended in 100 μL of TBS plus Mn^2+, and transferred to a scintillation vial containing 2.9 mL of ScintiVerse II (Fisher Scientific). Cell-associated radioactivity was quantified by scintillation counting. All studies were performed in siliconized 1.5 mL eppendorf tubes with a standard 1 mL sample volume. Each condition was tested in at least two independent studies. Non-specific binding of ^35S-B to cells was assessed at each cell density and ^35S-B concentration in TBS but in the absence of added metal ion. Specific counts bound were calculated by subtracting non specific counts from total counts bound. Counts bound under these conditions measures integrin that is not occupied by the test compound and is therefore free to bind the ^35S-B. The competition format was also used for kinetic binding studies. Binding and dissociation constants were calculated from α4β1 that remained free to bind the ^35S-B after treatment with test compound.
The affinities of the PEGylated inhibitors for α4β1 were calculated from association and disassociation rate constants using a kinetic analysis. For these studies, Jurkat cells expressing α4β1 (75,000 copies/cell) were treated with the inhibitors and then ^35S-B was added as a probe to detect free α4β1. The levels of bound inhibitor were calculated from a measure of total ^35S-B bound in the absence of added inhibitor and counts bound following inhibitor treatment.
For assay [2], the target named is T1, α4β1. Kind of assay: Equilibrium binding on Jurkat cells, competition with 35S-B as reporter.
Description: The α4β1-expressing Jurkat human T-cell line (a gift from S. Burakoff, Dana Farber Cancer Institute, Boston, Mass.), and the α4β7-expressing human B-cell line, JY (American Type Tissue Collection, Rockville, Md.) were maintained in culture at 37° C. in RPMI-1640 medium supplemented with 10% fetal bovine serum (FBS). K562 cell lines transfected with either the human α1-integrin chain (Phil Gotwells, Biogen, Inc) or with the human α2 integrin chain (a gift from M. Hemler, Dana Farber Cancer Institute, Boston, Mass.) were maintained in RPMI-1640 medium supplemented with 10% FBS and 1 mg/mL G418. All cells were periodically monitored for high integrin surface expression by FACS analysis. The binding of the various inhibitors to α4β1 were assessed on Jurkat cells by competition using radioactive ^35S-B as a reporter for a 1 occupancy. Jurkat cells were pelleted by centrifugation, washed two times with TBS (50 mM Tris HCl, 150 mM NaCl, 0.1% bovine serum albumin, 2 mM glucose, 10 mM HEPES pH 7.4), suspended at approximately 2×10^6 cells/mL in TBS, and counted using a Neubauer hemocytometer. The cells were further diluted 2×10^6 cells/mL with TBS containing 1 mM CaCl2 and 1 mM MgCl2 and treated with serial dilutions of test compound for 1 hour, and then 5 nM ^35S-B, an amount sufficient to bind all unoccupied receptors, was added for 10 minutes before measuring the bound counts. The cells were then pelleted by centrifugation, resuspended in 100 μL of TBS plus Mn^2+, and transferred to a scintillation vial containing 2.9 mL of ScintiVerse II (Fisher Scientific). Cell-associated radioactivity was quantified by scintillation counting. All studies were performed in siliconized 1.5 mL eppendorf tubes with a standard 1 mL sample volume. Each condition was tested in at least two independent studies. Non-specific binding of ^35S-B to cells was assessed at each cell density and ^35S-B concentration in TBS but in the absence of added metal ion. Specific counts bound were calculated by subtracting non specific counts from total counts bound. Counts bound under these conditions measures integrin that is not occupied by the test compound and is therefore free to bind the ^35S-B. The competition format was also used for kinetic binding studies. Binding and dissociation constants were calculated from α4β1 that remained free to bind the ^35S-B after treatment with test compound.
The affinities of the PEGylated inhibitors for α4β1 were calculated from association and disassociation rate constants using a kinetic analysis. For these studies, Jurkat cells expressing α4β1 (75,000 copies/cell) were treated with the inhibitors and then ^35S-B was added as a probe to detect free α4β1. The levels of bound inhibitor were calculated from a measure of total ^35S-B bound in the absence of added inhibitor and counts bound following inhibitor treatment. […] IC50 values were calculated from equilibrium binding studies on Jurkat cells through competition using ^35S-B as a reporter in buffer containing 1 mM Ca^2+ and 1 mM Mg^2+.
Second, the effect of protein binding on the affinity of the PEGylated inhibitors for α4β1 on Jurkat cells was evaluated from equilibrium binding measurements.
In assay [3] the target is T1, α4β1. Kind of assay: VCAM-Ig direct binding assay (DBA), Jurkat cells.
Excerpt: A direct binding assay may also be employed to quantitate the inhibitory activity of the compounds. In this assay, a VCAM-IgG fusion protein containing the first two immunoglobulin domains of VCAM (D1D2) attached above the hinge region of an IgG1 molecule (“VCAM 2D-IgG”), is conjugated to a marker enzyme, such as alkaline phosphatase (“AP”). […] The conjugation of that fusion to a marker enzyme is achieved by cross-linking methods well-known in the art.
The VCAM-IgG enzyme conjugate is then placed in the wells of a multi-well filtration plate, such as that contained in the Millipore Multiscreen Assay System (Millipore Corp., Bedford, Mass.). Varying concentrations of the test inhibitory compound are then added to the wells followed by addition of VLA-4-expressing cells. The cells, compound and VCAM-IgG enzyme conjugate are mixed together and allowed to incubate at room temperature. Following incubation, the wells are vacuum drained, leaving behind the cells and any bound VCAM. Quantitation of bound VCAM is determined by adding an appropriate calorimetric substrate for the enzyme conjugated to VCAM-IgG and determining the amount of reaction product. Decreased reaction product indicates increased binding inhibitory activity.
Samples were also evaluated for function using the VCAM-Ig direct binding assay. Details for the construction of the VCAM-Ig animal cell expression vector, the generation of a Chinese hamster ovary (CHO) cell line expressing VCAM-Ig, conjugation of the VCAM-Ig to alkaline phosphatase, and the development of a direct binding assay for characterizing α4β1 and α4β7 binding to VCAM-Ig were as previously described (see Lobb, R. R., et al. (1995) Cell Adhes. Commun. 3:385–397).
For these studies, a series of compounds based on compound E containing 0.35, 2, 5, 20, 30, and 50 kDa-mPEG was synthesized and tested for binding to α4β1 on Jurkat cells with VCAM-Ig as a reporter (see methods).
Setting [4] is: IC50, buffer with 1 mM Ca2+ and 1 mM Mg2+, no plasma.

T1 sequence (P13612 34-1032): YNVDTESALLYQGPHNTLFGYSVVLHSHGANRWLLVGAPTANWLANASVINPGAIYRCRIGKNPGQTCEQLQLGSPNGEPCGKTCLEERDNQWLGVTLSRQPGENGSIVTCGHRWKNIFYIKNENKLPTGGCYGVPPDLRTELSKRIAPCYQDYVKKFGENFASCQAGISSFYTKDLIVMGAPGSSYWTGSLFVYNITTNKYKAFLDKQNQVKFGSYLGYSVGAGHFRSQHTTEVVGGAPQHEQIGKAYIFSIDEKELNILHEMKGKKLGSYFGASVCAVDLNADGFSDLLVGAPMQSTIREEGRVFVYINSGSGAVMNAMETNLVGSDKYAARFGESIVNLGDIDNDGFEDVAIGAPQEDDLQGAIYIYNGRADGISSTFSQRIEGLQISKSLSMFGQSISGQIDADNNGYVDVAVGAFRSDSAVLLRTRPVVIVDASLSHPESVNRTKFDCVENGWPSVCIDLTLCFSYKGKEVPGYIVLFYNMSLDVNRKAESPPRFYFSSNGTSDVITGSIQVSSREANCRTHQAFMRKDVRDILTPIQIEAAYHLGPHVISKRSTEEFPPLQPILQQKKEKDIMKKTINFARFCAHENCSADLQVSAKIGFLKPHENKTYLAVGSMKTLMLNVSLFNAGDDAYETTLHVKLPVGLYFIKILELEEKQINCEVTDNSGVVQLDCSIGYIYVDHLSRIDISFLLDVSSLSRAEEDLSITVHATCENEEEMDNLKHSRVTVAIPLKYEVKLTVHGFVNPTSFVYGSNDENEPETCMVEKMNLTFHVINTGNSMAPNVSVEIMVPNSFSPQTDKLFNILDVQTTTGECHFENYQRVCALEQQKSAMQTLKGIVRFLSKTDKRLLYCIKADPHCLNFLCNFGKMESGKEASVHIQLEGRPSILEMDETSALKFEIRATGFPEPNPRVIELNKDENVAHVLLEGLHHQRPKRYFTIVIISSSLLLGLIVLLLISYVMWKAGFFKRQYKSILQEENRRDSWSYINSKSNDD
T1 sequence (P05556 21-798): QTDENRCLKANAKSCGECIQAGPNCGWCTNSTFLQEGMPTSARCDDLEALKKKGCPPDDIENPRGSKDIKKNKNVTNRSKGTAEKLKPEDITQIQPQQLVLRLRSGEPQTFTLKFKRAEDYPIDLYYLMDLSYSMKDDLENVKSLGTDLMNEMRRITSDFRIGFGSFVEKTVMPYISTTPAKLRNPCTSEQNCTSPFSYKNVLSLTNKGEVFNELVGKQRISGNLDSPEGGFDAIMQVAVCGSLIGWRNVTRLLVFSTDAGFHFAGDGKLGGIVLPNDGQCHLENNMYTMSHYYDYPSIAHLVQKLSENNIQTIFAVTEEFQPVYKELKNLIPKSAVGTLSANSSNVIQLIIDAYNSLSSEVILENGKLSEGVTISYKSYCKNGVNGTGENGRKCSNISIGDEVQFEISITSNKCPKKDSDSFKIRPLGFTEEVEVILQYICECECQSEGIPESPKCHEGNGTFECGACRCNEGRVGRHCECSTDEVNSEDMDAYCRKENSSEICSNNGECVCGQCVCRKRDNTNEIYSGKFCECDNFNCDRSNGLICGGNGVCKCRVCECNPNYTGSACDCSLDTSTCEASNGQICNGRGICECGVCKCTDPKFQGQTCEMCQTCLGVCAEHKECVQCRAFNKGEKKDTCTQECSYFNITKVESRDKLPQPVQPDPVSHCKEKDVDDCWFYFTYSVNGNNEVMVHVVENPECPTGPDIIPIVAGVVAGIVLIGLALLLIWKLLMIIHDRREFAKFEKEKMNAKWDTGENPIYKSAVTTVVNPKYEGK

`Cc1ccccc1NC(=O)Nc1ccc(CC(=O)N(C)[C@@H](CC(C)C)C(=O)NCC[C@H](NC(=O)[C@@H]2C[C@H](N)CN2S(=O)(=O)c2ccccc2)C(=O)O)cc1` [F]: at α4β1 [1] (Jurkat cells, 35S-B probe), the koff came out at 0.00024 s⁻¹ and the kon was determined as 3.4e+06 M⁻¹ s⁻¹. Further, the Kd at α4β1 [1] (Jurkat cells) is 0.07 nM. The half-maximal inhibitory concentration (IC50) on α4β1 [2] (IC50(HP), 100% human plasma) is 8.7 nM. In addition, the IC50 on α4β1 [2] (setting [4]) is 3.5 nM.
Turning to `Cc1ccccc1NC(=O)Nc1ccc(CC(=O)N(C)C(CC(C)C)C(=O)NCCC(NC(=O)[C@@H]2C[C@@H](NC(=O)CCCCCN)CN2S(=O)(=O)c2ccccc2)C(=O)O)cc1` (relative stereo) [E], the Kd at α4β1 [1] (Jurkat cells) is 0.044 nM. Further, on α4β1 [1], the koff is 0.00011 s⁻¹ and the kon came out at 2.5e+06 M⁻¹ s⁻¹. Besides, the IC50 on α4β1 [2] (IC50(HP), 100% human plasma) worked out at 2.3 nM. On α4β1 [2] (setting [4]), this molecule yielded an IC50 of 1.4 nM.
The like results for `Cc1ccccc1NC(=O)Nc1ccc(CC(=O)N(C)[C@@H](CCCCNC(=O)CCCCCN)C(=O)NCC[C@H](NC(=O)[C@@H]2CCCN2S(=O)(=O)c2ccccc2)C(=O)O)cc1` [Compound A, 4-[6-(6-Amino-hexanoylamino)-2(S)-(methyl-{2-[4-(3-o-tolyl-ureido)-phenyl]-acetyl}-amino)-hexanoylamino]-2(S)-[(1-benzenesulfonyl-pyrrolidine-2(S)-carbonyl)-amino]-butyric acid] were, in that order, 0.25 nM, 0.00053 s⁻¹, 2e+06 M⁻¹ s⁻¹, 2.1 nM and 0.35 nM.
On to `Cc1ccccc1NC(=O)Nc1ccc(CC(=O)N(C)C(CC(C)C)C(=O)NCCC(NC(=O)C2CC(NC(=O)CCCCCNC(=O)CCCCCCC(=O)NCCCCCC(=O)NC3CC(C(=O)NC(CCNC(=O)C(CC(C)C)N(C)C(=O)Cc4ccc(NC(=O)Nc5ccccc5C)cc4)C(=O)O)N(S(=O)(=O)c4ccccc4)C3)CN2S(=O)(=O)c2ccccc2)C(=O)O)cc1` (stereo not drawn) [Q], for which, at α4β1 [1] (Ca2+Mg2+, 30 min), the “% bound Ca2+Mg2+ 30 min” value came to 0.1%. The “% bound Mn2+ 60 min” value at α4β1 [1] (Mn2+, 60 min) was 93%. Further, on α4β1 [3] (100% rat plasma, 50 nM), the “DBA 100% rat plasma, % @ 50 nM” value is on record as “(0% @”. In addition, the 50% inhibitory concentration (IC50) worked out at 74 nM at α4β1 [3] (read-out: DBA IC50 Ca2+Mg2+, Ca2+Mg2+) and 4.3 nM at α4β1 [3] (read-out: DBA IC50 Mn2+, Mn2+).
As to `Cc1ccccc1NC(=O)Nc1ccc(CC(=O)N(C)C(CC(C)C)C(=O)NCCC(NC(=O)[C@@H]2C[C@H](NC(=O)CCCCCN)CN2S(=O)(=O)c2ccccc2)C(=O)O)cc1` (relative stereo) [D], the Kd at α4β1 [1] (Jurkat cells) is 0.061 nM. In addition, on α4β1 [1], the koff worked out at 0.0002 s⁻¹ and the kon amounted to 3.3e+06 M⁻¹ s⁻¹. This molecule also came in with a half-inhibitory concentration (IC50) at α4β1 [2] (IC50(HP), 100% human plasma) of 7.9 nM. At α4β1 [2] (setting [4]), this molecule showed a half-maximal inhibitory concentration (IC50) of 1.5 nM.
`Cc1ccccc1NC(=O)Nc1ccc(CC(=O)N(C)[C@@H](CC(C)C)C(=O)NCC[C@H](NC(=O)[C@@H]2C[C@@H](N)CN2S(=O)(=O)c2ccccc2)C(=O)O)cc1` [C]: the koff on α4β1 [1] (Jurkat cells, 35S-B probe) was 0.00012 s⁻¹. Moreover, on α4β1 [1] (Jurkat cells, 35S-B probe), the kon was 3e+06 M⁻¹ s⁻¹. Further, the equilibrium dissociation constant (Kd) at α4β1 [1] (Jurkat cells) is 0.04 nM. For the same molecule, the concentration for half-maximal inhibition (IC50) at α4β1 [2] (IC50(HP), 100% human plasma) stood at 2.1 nM; on α4β1 [2] (setting [4]), 1.2 nM.
